Earlier results, collected in patent US6582919B2, “Method of determining epidermal growth factor receptor and HER2-neu gene expression and correlation of levels thereof with survival rates” (Response Genetics, Inc., priority 2001, dated 2003).

Legend:
[1] = system: EGFR expressing human mammary carcinoma cells; settings: cells injected into athymic nude mice (Toi et al. 1990)
[2] = system: tumors not expressing EGFR; settings: Toi et al. 1990

In the case of O=CN/C=C/c1cc(O)ccc1O [erbstatin], the “growth of EGFR expressing human mammary carcinoma cells” value [1] is given as “reduced the growth” and the “growth of tumors not expressing EGFR” value [2] is given as “no effect”.
